Data: patent US8206756B2, “Herbal composition for inflammatory disorders” (Piramal Life Sciences Limited, priority 2005, dated 2012)

Legend:
Type in all cases: cell-based
IL-1β = assay: LPS-stimulated IL-1β release in hPBMCs (ELISA); details: Homo sapiens; LPS-stimulated hPBMC
Procedure: (§1) Primary screening—Human peripheral blood mononuclear cells (hPBMCs). TNF-α production by lipopolysaccharides (LPS) in hPBMCs was measured according to the method described by Jansky, L. et al (Physiol. Res. 52: 593-598, (2003)). Blood was collected from healthy donors into Potassium EDTA vacutainer tubes (BD vacutainer). The PBMCs were isolated using gradient centrifugation in Histopaque-1077 solution (Sigma). Isolated PBMCs were suspended in RPMI 1640 culture medium (Gibco BRL, Pasley, UK) containing 10% fetal bovine serum (FBS) (Hyclone, Utah, USA), 100 U/ml penicillin (Sigma Chemical Co. St Louis, Mo.) and 100 μg/ml streptomycin (Sigma Chemical Co. St Louis, Mo.). The cell concentration was adjusted to 1×10^6 cells/ml. The viability as determined by trypan blue dye exclusion was uniformly ≧98%. […] The % inhibition was recorded. Percent cytotoxicity of the test samples compared to control was evaluated.
(§2) The effect of the plant extract on the proinflammatory cytokines: TNF-α, interleukin-1β (IL-1β), interleukin-6 (IL-6) and interleukin-8 (IL-8) was measured using the supernatants generated in the primary screening assay. […]
(§3) The effect of the Compound 1, on the proinflammatory cytokines: TNF-α interleukin-1β (IL-1β), interleukin-6 (IL-6) and interleukin-8 (IL-8) was measured using the supernatants generated in the primary screening assay. […]

ICAM-1 = assay: Cell-ELISA for adhesion molecule expression in HUVECs: ICAM-1; details: Homo sapiens; TNF-α-induced surface expression, HUVEC
Procedure: (§4) The assay was designed on the basis of reference Transplantation, Vol 63(5), 759-764, 1997 with modifications.
(§5) Human Umbilical Vein Endothelial Cells (HUVECs) were obtained from Cascade Biologics and were maintained in M200 (Cascade Biologics, Portland, Oreg.) supplemented with low serum growth supplement (LSGS) at 37° C. in a 5% CO2 incubator. U937 cells (ATCC, Manassas, Va.) were grown in the RPMI 1640 medium supplemented with 10% FBS (Hyclone, Logan, Utah). Recombinant human TNFα, antibodies to VCAM-1, ICAM-1, E-Selectin were obtained from R&D Systems and LPS was obtained from Sigma (St. Louis, Mo.).
(§6) HUVECs were plated at […] in 96-well fibronectin-coated plates. The cells were stimulated with TNF-α (10 ng/ml) or LPS (1 μg/ml), 30 min after addition of test compound. After stimulation, cells (E-Selectin and ICAM-1) were fixed with paraformaldehyde in phosphate buffer saline (PBS). Non specific binding was blocked by 2% bovine serum albumin (BSA) in phosphate buffer saline (PBS) for 1 h, and the cells were incubated with primary antibody for 2 h. […] After washing, seven times, 3,3′5,5′-tetramethylbenzidine liquid substrate (TMB substrate) was added and the optical density of each well was determined at 450 nm using a microtitre plate reader (Spectramax, Molecular Devices, Calif.). […] Percent inhibition of the test sample compared to the control is evaluated. […]

IL-6 = assay: LPS-stimulated IL-6 release in hPBMCs (ELISA); details: Homo sapiens; LPS-stimulated hPBMC
Procedure: as §1, §2, §3

IL-8 [1] = assay: IL-8 production by synovial cells from a RA patient; details: Homo sapiens, Synovial cell, 10 hours
Procedure: Cytokine production by synovial cells obtained from a rheumatoid arthritis (RA) patient undergoing knee replacement surgery was measured according to the method described by Brennan, F. M. et al (The Lancet. July 29: 244-247, (1989)). The synovial membrane tissue was digested in DMEM (Gibco) containing 10% FBS, 100 U/ml penicillin and 100 μg/ml streptomycin, 4 mg/ml collagenase type I (Worthington), 1.5 μg/ml Dnase type I (Sigma) and 15 U/ml heparin and incubated at 37° C. for 3 hours. After incubation, the digested tissue was filtered through a 70-μm membrane and the cells washed 3 times in complete medium (DMEM with 10% FBS). The synovial cells were cultured at 1×10^6 cells/ml in presence/absence of the test sample for 10 hours. The supernatants were harvested by centrifugation and levels of the cytokines (TNF-α, IL-1β, IL-6, IL-8) measured by ELISA. To assess the cytotoxic effect of the plant extracts, the cellular viability test was performed using MTS reagent. The 50% inhibitory concentration (IC50) values were calculated by a nonlinear regression method using GraphPad software (Prism 3.03).
Effect on proinflammatory cytokines produced by synovial cells obtained from a RA patient was studied for compound 1 as described by procedure of example 8.

IL-8 [2] = assay: LPS-stimulated IL-8 release in hPBMCs (ELISA); details: Homo sapiens; LPS-stimulated hPBMC
Procedure: as §1, §2, §3

E-Selectin = assay: Cell-ELISA for adhesion molecule expression in HUVECs: E-Selectin; details: Homo sapiens; TNF-α-induced surface expression, HUVEC
Procedure: as §4, §5, §6

SMILES: C=C1C(=O)OC2C3=C(C)CCCC3(C)CCC12O (stereo not drawn) [Compound 1, 3a-hydroxy-5a,9-dimethyl-3-methylene-3a,4,5,5a,6,7,8,9b-octahydro-3H-naphtho[1,2-b]furan-2-one]
- IC50 (IL-1β): 400 nM
- IC50 (ICAM-1): 520 nM
- IC50 (IL-6): 1600 nM
- IC50 (IL-8 [1]): 10900 nM
- IC50 (IL-8 [2]): 8900 nM
- IC50 (E-Selectin): 200 nM
